Test results from patent US11442072B2, “Method for measuring LDL aggregation” (Jenny and Antti Wihuri Foundation, priority 2018, dated 2022).

B1: bcSMase: SMase from Bacillus cereus (Sigma-Aldrich) (protein, UniProt P09599 28-333, looked up)
Sphingomyelinase C: DTSTDQNNTLKVMTHNVYMLSTNLYPNWGQSQRADLIGAADYIKNQDVVILNEVFDNSASDRLLGNLKKEYPNQTAVLGRSNGNEWDKTLGSYSSSTPEDGGVAIVSKWPIVEKIQYVFAKGCGPDNLSNKGFVYTKIKKNDRFVHVIGTHLQAEDSMCGKTSPASVRTNQLKEIQDFIKNKNIPNDEYVLFGGDMNVNKINAENNSDSEYASMFKTLHASIPSYTGHTATWDATTNSIAKYNFPDSPAEYLDYIIASKDHANPSFIENKVLQPKSPQWTVTSWLKKYTYDDYSDHYPVAATISMK

Tests used:
[1] = target: T1, apoB-100 (Homo sapiens, UniProt P04114); experiment: Circular dichroism of phospholipid-enriched LDL after SMase treatment; type: biochemical; settings: lipid-enriched LDL, SMase 30 min
T1 construct: from tissue; host or cells: human blood plasma (LDL fraction d=1.019-1.063 g/ml, ultracentrifugation)
T1 sequence (P04114 28-4563): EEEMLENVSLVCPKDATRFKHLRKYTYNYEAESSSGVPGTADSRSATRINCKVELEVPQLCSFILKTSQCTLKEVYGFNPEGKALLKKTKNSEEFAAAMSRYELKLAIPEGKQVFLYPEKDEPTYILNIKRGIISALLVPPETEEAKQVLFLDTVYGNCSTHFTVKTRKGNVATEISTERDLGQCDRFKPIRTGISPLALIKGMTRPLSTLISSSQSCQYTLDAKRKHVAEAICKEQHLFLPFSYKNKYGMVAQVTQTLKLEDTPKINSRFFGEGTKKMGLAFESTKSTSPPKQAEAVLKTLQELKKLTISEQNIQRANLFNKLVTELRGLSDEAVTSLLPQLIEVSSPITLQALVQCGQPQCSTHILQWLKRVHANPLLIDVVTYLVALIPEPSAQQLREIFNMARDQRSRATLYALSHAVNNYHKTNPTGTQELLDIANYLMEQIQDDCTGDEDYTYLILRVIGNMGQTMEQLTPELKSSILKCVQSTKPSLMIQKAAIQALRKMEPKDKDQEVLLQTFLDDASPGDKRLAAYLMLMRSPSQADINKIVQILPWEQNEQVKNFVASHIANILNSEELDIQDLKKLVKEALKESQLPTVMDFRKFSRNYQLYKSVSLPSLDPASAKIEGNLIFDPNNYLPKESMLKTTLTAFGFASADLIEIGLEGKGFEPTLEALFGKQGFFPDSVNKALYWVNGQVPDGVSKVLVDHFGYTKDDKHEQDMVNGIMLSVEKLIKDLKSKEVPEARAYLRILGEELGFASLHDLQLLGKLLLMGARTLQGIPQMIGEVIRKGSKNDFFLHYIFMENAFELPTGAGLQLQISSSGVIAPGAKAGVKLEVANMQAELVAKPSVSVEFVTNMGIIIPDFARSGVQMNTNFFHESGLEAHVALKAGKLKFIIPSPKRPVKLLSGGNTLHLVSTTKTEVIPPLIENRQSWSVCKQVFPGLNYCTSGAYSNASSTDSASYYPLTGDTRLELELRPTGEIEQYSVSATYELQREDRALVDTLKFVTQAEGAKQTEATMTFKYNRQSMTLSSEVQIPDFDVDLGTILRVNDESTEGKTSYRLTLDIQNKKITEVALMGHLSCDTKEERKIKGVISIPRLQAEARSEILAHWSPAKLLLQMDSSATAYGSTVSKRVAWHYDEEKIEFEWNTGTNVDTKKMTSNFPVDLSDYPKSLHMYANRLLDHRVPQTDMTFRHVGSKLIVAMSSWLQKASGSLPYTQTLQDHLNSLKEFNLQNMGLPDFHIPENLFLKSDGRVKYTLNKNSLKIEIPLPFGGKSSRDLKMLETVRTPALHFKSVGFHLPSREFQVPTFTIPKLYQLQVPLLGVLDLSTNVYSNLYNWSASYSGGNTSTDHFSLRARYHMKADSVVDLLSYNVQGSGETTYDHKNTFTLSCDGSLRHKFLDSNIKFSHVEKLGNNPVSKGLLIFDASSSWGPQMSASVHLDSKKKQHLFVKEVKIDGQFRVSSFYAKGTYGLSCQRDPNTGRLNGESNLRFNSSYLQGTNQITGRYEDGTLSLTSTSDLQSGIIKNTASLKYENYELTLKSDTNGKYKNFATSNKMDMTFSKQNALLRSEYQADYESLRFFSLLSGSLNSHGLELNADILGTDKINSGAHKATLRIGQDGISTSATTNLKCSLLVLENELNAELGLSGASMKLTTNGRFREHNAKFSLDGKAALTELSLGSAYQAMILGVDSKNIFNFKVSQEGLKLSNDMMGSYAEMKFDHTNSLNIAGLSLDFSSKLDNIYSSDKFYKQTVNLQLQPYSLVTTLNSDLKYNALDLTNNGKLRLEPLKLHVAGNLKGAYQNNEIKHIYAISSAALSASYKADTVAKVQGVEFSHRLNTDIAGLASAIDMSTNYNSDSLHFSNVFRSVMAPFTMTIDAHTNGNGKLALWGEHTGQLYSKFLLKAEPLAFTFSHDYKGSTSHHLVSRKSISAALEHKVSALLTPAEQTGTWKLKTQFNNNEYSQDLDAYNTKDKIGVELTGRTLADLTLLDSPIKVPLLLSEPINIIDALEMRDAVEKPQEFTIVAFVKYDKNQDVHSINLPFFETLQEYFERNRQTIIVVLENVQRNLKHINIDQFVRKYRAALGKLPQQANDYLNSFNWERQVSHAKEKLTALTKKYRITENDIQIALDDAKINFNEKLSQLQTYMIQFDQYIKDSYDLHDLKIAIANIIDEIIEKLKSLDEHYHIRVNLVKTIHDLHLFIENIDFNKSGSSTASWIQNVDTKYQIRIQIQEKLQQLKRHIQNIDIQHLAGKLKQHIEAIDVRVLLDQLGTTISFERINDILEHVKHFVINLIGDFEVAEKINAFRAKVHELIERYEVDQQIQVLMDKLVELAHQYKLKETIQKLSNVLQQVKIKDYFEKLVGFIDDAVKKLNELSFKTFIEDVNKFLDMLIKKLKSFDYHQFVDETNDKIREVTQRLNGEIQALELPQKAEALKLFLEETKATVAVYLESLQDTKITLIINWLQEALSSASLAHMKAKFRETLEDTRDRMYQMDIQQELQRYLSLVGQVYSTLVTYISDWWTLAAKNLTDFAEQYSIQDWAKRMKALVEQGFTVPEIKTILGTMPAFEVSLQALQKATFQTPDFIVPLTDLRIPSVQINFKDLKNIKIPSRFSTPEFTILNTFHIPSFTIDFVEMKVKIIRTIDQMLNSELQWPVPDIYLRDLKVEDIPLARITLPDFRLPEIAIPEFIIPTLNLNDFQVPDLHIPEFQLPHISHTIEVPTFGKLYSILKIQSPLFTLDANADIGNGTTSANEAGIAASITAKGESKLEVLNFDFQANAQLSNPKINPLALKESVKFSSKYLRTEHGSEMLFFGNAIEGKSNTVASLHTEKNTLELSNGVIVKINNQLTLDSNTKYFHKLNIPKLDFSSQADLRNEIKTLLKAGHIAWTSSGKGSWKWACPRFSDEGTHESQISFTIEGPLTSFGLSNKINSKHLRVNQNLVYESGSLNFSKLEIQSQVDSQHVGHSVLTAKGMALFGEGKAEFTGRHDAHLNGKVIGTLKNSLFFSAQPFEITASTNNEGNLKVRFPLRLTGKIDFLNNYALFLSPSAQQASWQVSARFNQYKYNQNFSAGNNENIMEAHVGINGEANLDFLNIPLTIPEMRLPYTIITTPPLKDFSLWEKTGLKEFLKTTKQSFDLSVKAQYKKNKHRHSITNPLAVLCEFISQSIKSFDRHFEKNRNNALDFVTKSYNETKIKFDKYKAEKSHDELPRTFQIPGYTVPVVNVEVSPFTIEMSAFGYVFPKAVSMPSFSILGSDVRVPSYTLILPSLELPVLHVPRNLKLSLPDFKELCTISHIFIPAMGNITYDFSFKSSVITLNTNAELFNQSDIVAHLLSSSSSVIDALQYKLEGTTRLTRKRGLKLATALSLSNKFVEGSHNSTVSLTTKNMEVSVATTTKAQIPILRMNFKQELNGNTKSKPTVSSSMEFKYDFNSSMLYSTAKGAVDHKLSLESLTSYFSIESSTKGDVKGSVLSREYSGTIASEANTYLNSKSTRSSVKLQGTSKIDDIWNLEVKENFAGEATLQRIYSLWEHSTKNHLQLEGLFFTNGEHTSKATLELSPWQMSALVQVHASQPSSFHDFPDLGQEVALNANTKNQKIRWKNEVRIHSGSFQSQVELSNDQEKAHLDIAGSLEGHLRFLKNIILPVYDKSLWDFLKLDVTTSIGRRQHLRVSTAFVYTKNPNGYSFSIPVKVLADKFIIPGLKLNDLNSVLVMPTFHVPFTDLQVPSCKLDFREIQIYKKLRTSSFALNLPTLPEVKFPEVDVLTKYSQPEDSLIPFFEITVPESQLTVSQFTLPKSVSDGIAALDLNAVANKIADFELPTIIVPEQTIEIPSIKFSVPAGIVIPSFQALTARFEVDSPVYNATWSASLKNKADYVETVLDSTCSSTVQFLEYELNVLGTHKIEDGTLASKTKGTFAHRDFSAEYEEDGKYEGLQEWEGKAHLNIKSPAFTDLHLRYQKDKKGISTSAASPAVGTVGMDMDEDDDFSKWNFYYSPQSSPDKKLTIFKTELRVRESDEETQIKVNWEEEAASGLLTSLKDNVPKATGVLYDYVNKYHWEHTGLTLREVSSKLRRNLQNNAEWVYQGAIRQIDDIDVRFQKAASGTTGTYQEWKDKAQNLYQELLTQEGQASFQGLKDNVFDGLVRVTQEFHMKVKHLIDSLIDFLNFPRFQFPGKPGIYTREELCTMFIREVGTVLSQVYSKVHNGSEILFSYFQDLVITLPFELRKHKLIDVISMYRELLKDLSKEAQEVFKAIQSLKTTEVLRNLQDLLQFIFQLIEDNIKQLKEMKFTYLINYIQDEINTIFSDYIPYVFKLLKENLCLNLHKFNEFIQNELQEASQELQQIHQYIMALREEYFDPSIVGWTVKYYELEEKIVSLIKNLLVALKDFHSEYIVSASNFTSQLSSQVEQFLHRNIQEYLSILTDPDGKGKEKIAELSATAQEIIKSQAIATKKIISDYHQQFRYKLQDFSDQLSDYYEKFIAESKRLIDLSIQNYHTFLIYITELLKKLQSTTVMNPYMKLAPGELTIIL
Protocol: Samples of control and SM-, PC- and LPC-enriched LDL particles (1 mg/ml) were treated with SMase for 30-min and lipolysis was stopped by 10 mM EDTA. The LDL particles (50 μg/ml) were analyzed by CD as described previously (11,12).

[2] = target: T2, LDL particles (Homo sapiens, UniProt P04114); experiment: Ex vivo enrichment of LDL with phospholipid vesicles, then hrSMase-induced aggregation (DLS); type: biochemical; settings: LDL from four healthy volunteers, enriched with 1 mM phospholipid vesicles
T2 construct: from tissue; host or cells: human blood plasma (LDL fraction d=1.019-1.063 g/ml, ultracentrifugation)
T2 sequence (P04114 28-4563): as above
Protocol: In the standard assay, LDL isolated from human plasma was extensively dialyzed against 20 mM MES buffer, pH 5.5, containing 150 mM NaCl and 50 μM ZnCl2 and its apoB-100 concentration was determined by ELISA (Mabtech). The sample was diluted with the same buffer to give a final concentration of 0.2 mg of apoB-100/ml and 75 μg/ml of hrSMase was added to LDL. The size of LDL was determined immediately and once every hour for up to 6-hours. An aliquot was taken at the same time points for phosphorylcholine measurement. The degree of SM hydrolysis was determined by measuring the amount of phosphorylcholine from the samples with Amplex Red reagent (Invitrogen).
To exchange LDL surface phospholipids, LDL (2 mg/ml) was incubated with phospholipid vesicles (1 mM phosphatidylcholine 18:1/16:0 (1-palmityl-2-oleyl-sn-glycero-3-phosphocholine), lysophosphatidylcholine 16:0 (1-Palmitoyl-2-Hydroxy-sn-Glycero-3-Phosphocoline) or sphingomyelin 16:0 (N-Palmitoyl-D-erythro-sphingosylphosphorylcholine) each from Avanti Polar Lipids) overnight at 37° C. in buffer A (5 mM Tris, 150 mM NaCl, 1 mM EDTA, pH 7.4). The vesicles had been prepared by sonicating 10 mM lipid solutions using a Branson Sonifier 250 sonicator (6 times for 5 minutes) in buffer A. Vesicles were removed with sequential ultracentrifugation (d<1.019 g/ml KBr) repeated twice. […]

[3] = test system: LDL; experiment: LDL aggregation induced by oxidation, proteolysis or lipolysis, followed by DLS; type: biochemical, human; settings: LDL 0.5 mg/ml from four donors; hrSMase at pH 5.5, other agents at pH 7.4
Protocol: Firstly, inter-individual variability in LDL aggregation using agents that have been reported to cause LDL aggregation was tested. LDL aggregation was induced at LDL concentration of 0.5 mg/ml by oxidation (incubation with 5 μM CuSO4), by proteolysis (incubation with 0.1 mg/ml α-chymotrypsin from bovine pancreas (Sigma-Aldrich)), or by lipolysis (incubation with 50 mU/ml phospholipase A2 (PLA2) from bee venom (Sigma-Aldrich)), with 200 mU/ml SMase from Bacillus cereus (bcSMase, Sigma-Aldrich)), or with 75 μg/ml hrSMase (a kind gift from Genzyme or produced in house). The incubation buffer was 20 mM Tris-HCl, pH 7.4, containing 150 mM NaCl and 2 mM CaCl2 and 2 mM MgCl2, except in the case of hrSMase, where the incubation buffer was 20 mM MES, pH 5.5, containing 150 mM NaCl and 50 μM ZnCl2. LDL size was determined at the beginning of the incubation and aggregate size was determined at the indicated time points by dynamic light scattering (DLS) (Zetasizer Nano, Malvern Instruments, Malvern Works, UK or Wyatt DynaPro Plate Reader 11, Wyatt Technology, California, USA).

Row | Molecule | SMase-induced conformational changes in apoB-100 [1] | Susceptibility of lipid-enriched LDL to aggregate during incubation with hrSMase, vs control LDL [2] | Aggregation of LDL [3]
1 | CCCCCCCCCCCCC/C=C/[C@@H](O)[C@H](COP(=O)([O-])OCC[N+](C)(C)C)NC(=O)CCCCCCCCCCCCCCC [SM 18:1/16:0, N-Palmitoyl-D-erythro-sphingosylphosphorylcholine] | enhanced | more susceptible | –
2 | CCCCCCCCCCCCCCCC(=O)OC[C@@H](O)COP(=O)([O-])OCC[N+](C)(C)C [LPC 16:0, 1-Palmitoyl-2-Hydroxy-sn-Glycero-3-Phosphocoline] | – | less susceptible | –
3 | B1 | – | – | caused aggregation
